Assay: in vitro
Conditions: mouse, microsomes, pH 7.4
Protocol: MLM assay (controls: diphenhydramine and diazepam). hERG assay (controls: quinidine and dimethylsulfoxide).
Microsomal Metabolic Stability
Pooled liver microsomes (final protein concentration 0.5 mg/mL), 0.1 M phosphate buffer pH
7.4 and test compound (final substrate concentration 3 µM; final DMSO concentration 0.25 %)
are pre-incubated at 37 °C prior to the addition of NADPH (final concentration 1 mM) to initiate
the reaction. The final incubation volume is 50 µL. A minus cofactor control incubation is
included for each compound tested where 0.1 M phosphate buffer pH 7.4 is added instead of
NADPH (minus NADPH). Two control compounds are included with each species. All incubations are performed singularly for each test compound. Each compound is incubated for 0, 5, 15, 30 and 45 min. The control (minus NADPH) is incubated for 45 min. The reactions
are stopped by transferring 20 µL of incubate to 60 µL methanol at the appropriate time points.
The termination plates are centrifuged at 2,500 rpm for 20 min at 4 °C to precipitate the protein.
Following protein precipitation, the sample supernatants are combined in cassettes of up to 4
compounds, internal standard is added and samples analysed using Cyprotex generic
LC-MS/MS conditions. From a plot of ln peak area ratio (compound peak area /internal
standard peak area) against time, the gradient of the line is determined. Subsequently, half-
life and intrinsic clearance are calculated using the equations below:
Elimination rate constant (k) = (- gradient)
Intrinsic clearance (CLint)(µL/min/mg protein) = where V = Incubation volume (µL)/Microsomal protein (mg)
Relevant control compounds are assessed, ensuring intrinsic clearance values fall within the
specified limits (if available).

SMILES: COC(=O)c1cc(OC[C@@H](COS(=O)(=O)[O-])OS(=O)(=O)[O-])ccc1OCCCCOS(=O)(=O)[O-].[Na+].[Na+].[Na+] [Compound S-10, sodium (S)-3-(3-(methoxycarbonyl)-4-(4-(sulfonatooxy)butoxy)phenoxy)propane-1,2-diyl bis(sulfate)]
- half-life at 0.75 h, 3 µM: 2.89 days

Source: PMC8152814, “The modulatory role of sulfated and non-sulfated small molecule heparan sulfate-glycomimetics in endothelial dysfunction: absolute structural clarification, molecular docking and simulated dynamics, SAR analyses and ADMET studies” (RSC Medicinal Chemistry, 2021)
